Source: patent US20050176938A1, “Anhydrate/hydrate of an erythromycin derivative and processes for preparing said anhydrate/hydrate” (Chugai Seiyaku Kabushiki Kaisha, priority 2002, published 2005)
Where a name gives a salt, the structure may show the parent alone. Blank lines part the entries; values can stand above or below the compound they belong to.

Legend:
Assay type in all cases: physicochemical
[1] = Residual solvent level (ethyl acetate) by gas chromatography; settings: for Residual solvent level: anhydrate before, X-hydrate after conditioning
Text: The residual solvent level described above can be determined by a known method such as gas chromatography. Gas chromatography is described in detail at B98-B114 of the Practical Guide of the 14th revision of Pharmacopoeia of Japan (published by Hirokawa Publishing Co., 2001) or the like. The measurement error by gas chromatography is normally within about ±1%.
The following examples further illustrate the present invention without, however, limiting the invention thereto. In the following examples, NMR spectra were measured by using a nuclear magnetic resonance spectrometer JNM-ECP500SS (made by JEOL) and only characteristic peaks were shown. Powder X-ray diffraction spectra were measured by using a powder X-ray diffractometer RINT-1100 (made by Rigaku). Residual solvent levels were measured by using a gas chromatograph GC-17A (made by Shimadzu) within an error of about ±1%. The staring material Dihydroxy compound described below (compound 1) can be prepared according to the process described in JPA 1997-100241 or modifications thereof.
Crystal form D anhydrate prepared according to Example 2 and Crystal form D X-hydrate prepared by conditioning said anhydrate according to Example 3 (1) or (2) using an air-circulating dryer (made by Nippon Kansoki), a vibro-fluidized bed dryer VUA-10DJ (made by Chuo Kakohki) or a fluidized bed granulator New Marumerizer NQ-160 (made by Fuji Paudal) were assayed for their residual solvent levels (ethyl acetate) by gas chromatography. Before and after conditioning, the crystal form was confirmed by powder X-ray diffraction spectra to have been transferred from Crystal form D anhydrate into Crystal form D X-hydrate.

[2] = Accelerated testing with oxygen at 40° C. for 2 weeks and 1 month, degradants by HPLC; settings: for Percent Degradants: Oxygen replacement, X-hydrate 75% RH
Method: (§1) The resulting samples were tested for purity by HPLC, and the peak area of each sample was measured by automatic analysis to determine the product percentage by the area percentage method according to the equation below. The HPLC column used was YMC ODS AM303 (4.6×250 mm) with a mobile phase consisting of a solution of acetonitrile: water=1:1 containing PICB-8 (Low UV) reagent, and a UV spectrometer (260 nm) and a PDA (200-400 nm) were used as detectors on 25 μL of each sample solution prepared by dissolving about 20 mg of each sample in a solution of acetonitrile:water=1:1 to a volume of exactly 25 mL.
(§2) Degradants percentage (%)=(degradants peak area×100)/(total of peak areas excluding peaks derived from fumaric acid and control solution)
In the same manner as described in (1) above, Crystal form D was stored and dried under reduced pressure in a desiccator containing silica gel. After drying under reduced pressure, the air in the desiccator was replaced with high-purity oxygen conditioned at a relative humidity of 0% RH to perform accelerated testing of Crystal form D anhydrate at 40° C. for 2 weeks and for 1 month. Similarly, Crystal form D was stored in a desiccator conditioned at a relative humidity of about 75% RH by an aqueous saturated sodium chloride solution and the air in the desiccator was replaced with high-purity oxygen conditioned at a relative humidity of 75% RH to perform accelerated testing of Crystal form D X-hydrate at 40° C. for 2 weeks and for 1 month. The resulting samples were analyzed as described in (1) above. Before and after accelerated testing, the crystal form was confirmed to be kept Crystal form D anhydrate or Crystal form D X-hydrate under each conditions by powder X-ray diffraction spectra.

[3] = Accelerated testing (stability) of Crystal form D anhydrate and X-hydrate at 40° C. and 60° C. for 1 month, degradants by HPLC; settings: for Percent Degradants: X-hydrate at about 75% RH
Method: Three lots of Crystal form D anhydrate prepared according to the procedure described in Example 2 were stored and dried under reduced pressure in a desiccator containing silica gel. After drying under reduced pressure, the desiccator was charged with air conditioned at a relative humidity of 0% RH to perform accelerated testing of Crystal form D anhydrate at 40° C. for 1 month and at 60° C. for 1 month. Similarly, Crystal form D was stored in a desiccator conditioned at a relative humidity of about 75% RH by an aqueous saturated sodium chloride solution to perform accelerated testing of Crystal form D X-hydrate at 40° C. for 1 month and at 60° C. for 1 month. Before and after accelerated testing, the crystal form was confirmed to be Crystal form D anhydrate or Crystal form D X-hydrate by powder X-ray diffraction spectra.
as §1, §2

Residual solvent level ([1]; Lot A, Air-circulating dryer, 20-21° C., 58-63% RH (air) 2 hrs, listed as X-hydrate): 636 ppm | Residual solvent level ([1]; Lot B, Vibro-fluidized bed dryer, 22-28° C., 75 ± 15% RH (nitrogen gas) 4 hrs, listed as X-hydrate): 446 ppm | Residual solvent level ([1]; Lot C, Fluidized bed granulator, 24-29° C., 75 ± 10% RH (air) 4 hrs, listed as X-hydrate): 424 ppm | Residual solvent level ([1]; Lot D, Vibro-fluidized bed dryer, 19-26° C., 70-71% RH (nitrogen gas) 4 hrs, listed as X-hydrate): 424 ppm | Residual solvent level ([1]; Lot E, Air-circulating dryer, 19-28° C., 41-71% RH (air) 72 hrs, listed as X-hydrate): 251 ppm | residual solvent level compared between the crystal forms ([1]; all the lots): lower | Percent Degradants ([2]; 1 month, Lot 1, anhydrate 0% RH, listed as X-hydrate): 0.66% | Percent Degradants ([2]; 1 month, Lot 2, anhydrate 0% RH, listed as X-hydrate): 0.72% | Percent Degradants ([2]; 1 month, Lot 3, anhydrate 0% RH, listed as X-hydrate): 0.93% | Percent Degradants ([2]; 2 weeks, Lot 1, anhydrate 0% RH, listed as X-hydrate): 0.17% | Percent Degradants ([2]; 2 weeks, Lot 2, anhydrate 0% RH, listed as X-hydrate): 0.05% | Percent Degradants ([2]; 2 weeks, Lot 3, anhydrate 0% RH, listed as X-hydrate): 0.18% | Percent Degradants ([3]; 40° C., Lot 1, anhydrate at 0% RH, listed as X-hydrate): 0.17% | Percent Degradants ([3]; 40° C., Lot 2, anhydrate at 0% RH, listed as X-hydrate): 0.42% | Percent Degradants ([3]; 40° C., Lot 3, anhydrate at 0% RH, listed as X-hydrate): 0.22% | Percent Degradants ([3]; 60° C., Lot 1, anhydrate at 0% RH, listed as X-hydrate): 0.90% | Percent Degradants ([3]; 60° C., Lot 2, anhydrate at 0% RH, listed as X-hydrate): 0.63% | Percent Degradants ([3]; 60° C., Lot 3, anhydrate at 0% RH, listed as X-hydrate): 1.53%
Compound: CC[C@H]1OC(=O)[C@H](C)[C@@H](O[C@H]2C[C@@](C)(OC)[C@@H](O)[C@H](C)O2)[C@H](C)[C@@H](O[C@@H]2O[C@H](C)C[C@H](N(C)C(C)C)[C@H]2O)[C@@]2(C)CC(C)=C(O2)[C@H](C)C(=O)[C@]1(C)OC [Crystal form D X-hydrate, [2S, 4R, 5R, 8R, 9S, 10S, 11R, 12R]-9-[(2,6-dideoxy-3-C-methyl-3-O-methyl-α-L-ribo-hexopyranosyl)oxy]-5-ethyl-4-methoxy-2,4,8,10,12,14-hexamethyl-11-[[3,4,6-trideoxy-3-(isopropylmethylamino)-β-D-xylo-hexopyranosyl]oxy]-6,15-dioxabicyclo[10.2.1]pentadec-14 (1)-ene-3,7-dione (E)-2-butenedioic acid salt (2:1)]
stability compared between the crystal forms ([2]; oxygen replacement, 2 weeks and 1 month): more stable than Crystal form D anhydrate | stability compared between the crystal forms ([3]; 40° C. and 60° C., all the lots): more stable than Crystal form D anhydrate

Residual solvent level ([1]; Lot A, Air-circulating dryer, 20-21° C., 58-63% RH (air) 2 hrs, listed as Anhydrate): 697 ppm | Residual solvent level ([1]; Lot B, Vibro-fluidized bed dryer, 22-28° C., 75 ± 15% RH (nitrogen gas) 4 hrs, listed as Anhydrate): 616 ppm | Residual solvent level ([1]; Lot C, Fluidized bed granulator, 24-29° C., 75 ± 10% RH (air) 4 hrs, listed as Anhydrate): 750 ppm | Residual solvent level ([1]; Lot D, Vibro-fluidized bed dryer, 19-26° C., 70-71% RH (nitrogen gas) 4 hrs, listed as Anhydrate): 875 ppm | Residual solvent level ([1]; Lot E, Air-circulating dryer, 19-28° C., 41-71% RH (air) 72 hrs, listed as Anhydrate): 663 ppm | Percent Degradants ([2]; 1 month, Lot 1, anhydrate 0% RH, listed as Anhydrate): 3.12% | Percent Degradants ([2]; 1 month, Lot 2, anhydrate 0% RH, listed as Anhydrate): 3.39% | Percent Degradants ([2]; 1 month, Lot 3, anhydrate 0% RH, listed as Anhydrate): 3.96% | Percent Degradants ([2]; 2 weeks, Lot 1, anhydrate 0% RH, listed as Anhydrate): 1.01% | Percent Degradants ([2]; 2 weeks, Lot 2, anhydrate 0% RH, listed as Anhydrate): 1.00% | Percent Degradants ([2]; 2 weeks, Lot 3, anhydrate 0% RH, listed as Anhydrate): 1.32% | Percent Degradants ([3]; 40° C., Lot 1, anhydrate at 0% RH, listed as Anhydrate): 1.01% | Percent Degradants ([3]; 40° C., Lot 2, anhydrate at 0% RH, listed as Anhydrate): 1.38% | Percent Degradants ([3]; 40° C., Lot 3, anhydrate at 0% RH, listed as Anhydrate): 1.41% | Percent Degradants ([3]; 60° C., Lot 1, anhydrate at 0% RH, listed as Anhydrate): 2.66% | Percent Degradants ([3]; 60° C., Lot 2, anhydrate at 0% RH, listed as Anhydrate): 2.52% | Percent Degradants ([3]; 60° C., Lot 3, anhydrate at 0% RH, listed as Anhydrate): 3.05%
Compound: CC[C@H]1OC(=O)[C@H](C)[C@@H](O[C@H]2C[C@@](C)(OC)[C@@H](O)[C@H](C)O2)[C@H](C)[C@@H](O[C@@H]2O[C@H](C)C[C@H](N(C)C(C)C)[C@H]2O)[C@@]2(C)CC(C)=C(O2)[C@H](C)C(=O)[C@]1(C)OC [Crystal form D anhydrate, [2S, 4R, 5R, 8R, 9S, 10S, 11R, 12R]-9-[(2,6-dideoxy-3-C-methyl-3-O-methyl-α-L-ribo-hexopyranosyl)oxy]-5-ethyl-4-methoxy-2,4,8,10,12,14-hexamethyl-11-[[3,4,6-trideoxy-3-(isopropylmethylamino)-β-D-xylo-hexopyranosyl]oxy]-6,15-dioxabicyclo[10.2.1]pentadec-14(1)-ene-3,7-dione (E)-2-butenedioic acid salt (2:1)]
